Among the data in the SangsterLogP compilation are logP values, retold here.

The structures appear in SMILES notation.

`CCNC(=O)CC1CCCCC1`: the lipophilicity (logP) (as a rule, a log measure of how a compound divides between an organic and an aqueous phase) was 2.28. The value for `CCN(CC)C(=O)c1ccc(OC)cc1` was 2.5; that for `CCOc1ccccc1C(=O)N1CCCCC1` was 2.6; that for `CCN(CC)C(=O)c1ccccc1` was 1.8. In the case of `CCNC(=O)c1ccc(C)cc1`, the log partition coefficient (logP) was 1.38. The value for `CCN(CC)C(=O)c1cccc(C)c1` was 2.34; that for `CCNC(=O)Cc1ccccc1` was 1. The result for `CCOc1ccccc1C(=O)N(CC)CC` reads 2.5. The result for `COc1ccc(C(=O)N(C(C)C)C(C)C)cc1` reads 2.8; that for `CCNC(=O)c1cccc(C)c1`, 1.32; that for `Cc1cccc(C(=O)N(C)C)c1`, 1.6. In the case of `O=C(CC1CCCCC1)N1CCCCC1`, the log partition coefficient (logP) was determined as 3.2. The result for `CCNC(=O)c1ccccc1Cl` reads 0.95; that for `O=C(Cc1ccccc1)N1CCCCC1`, 2.44; that for `Cc1ccc(C(=O)N2CCCCC2)cc1`, 2.8. In turn, `CN(C)C(=O)c1ccccc1Cl` yielded a log partition coefficient (logP) of 1.54. The value for `CCN(CC)C(=O)Cc1ccccc1` was 2.4.

In turn, `CCN(CC)C(=O)CC1CCCCC1` registered a logP of 3.12.

In the case of `Cc1ccc(C(=O)N(C(C)C)C(C)C)cc1`, the logP is 2.5. `CCN(CC)C(=O)c1ccccc1Cl` had a lipophilicity (logP) of 2.1.

For the compound `COc1ccc(C(=O)N2CCCCC2)cc1`, the log partition coefficient (logP) turned out to be 2.4.

In turn, `O=C(c1ccccc1Cl)N1CCCCC1` registered a logP of 2.8.

As to `CCNC(=O)c1ccccc1OCC`, the logP worked out at 2.4. The value for `CN(C)C(=O)c1ccccc1` was 1.2. The result for `CC(C)N(C(=O)Cc1ccccc1)C(C)C` reads 3.1; that for `Cc1cccc(C(=O)N2CCCCC2)c1`, 2.6; that for `CCN(CC)C(=O)c1ccc(C)cc1`, 2.38. The compound `Cc1ccc(C(=O)N(C)C)cc1` displayed a logP of 1.72. In turn, `CC(C)N(C(=O)c1ccccc1)C(C)C` gave a log partition coefficient (logP) of 2.5. `CN(C)C(=O)Cc1ccccc1` registered a lipophilicity (logP) of 1.48. The result for `CCNC(=O)c1ccc(OC)cc1` reads 1.14; that for `O=C(c1ccccc1)N1CCCCC1`, 2.2; that for `CCOc1ccccc1C(=O)N(C(C)C)C(C)C`, 3.

The compound `CN(C)C(=O)CC1CCCCC1` came in with a logP of 2.19.

Compound `Cc1cccc(C(=O)N(C(C)C)C(C)C)c1` displayed a lipophilicity (logP) of 3. For `CC(C)N(C(=O)c1ccccc1Cl)C(C)C`, the logP was 3.
